Results reported in US20260285853A1, “COMPOUNDS AND METHODS FOR MODULATING SPLICING” (REMIX THERAPEUTICS INC., priority 2023, published 2026).

Tests used:
Assay in all cases: Gene panel canonical junction qPCR assay, decrease in CJ mRNA, Table 3
Format in all cases: cell-based
Details in all cases: decrease in canonical junction (CJ) mRNA, gene panel qPCR, Table 3
[1] = tested on: MYB mRNA
Summary of the method: (§1)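 A673 (DMEM, 10% FBS, 15,000 cells/well) or K562 (IMDM, 10% FBS) cells treated 24 h at 37 °C with 11-point 3-fold dilutions, top 10 uM, DMSO ≤0.25%. Canonical exon-exon junction mRNA measured by RT-qPCR, normalized to GAPDH, GUSB or PPIA and DMSO (ΔΔCt); IC50 from 4-parameter logistic fit.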

[2] = tested on: SMN2 mRNA
Summary of the method: as §1

[3] = tested on: HTT mRNA
Summary of the method: as §1

Structure (SMILES) | IC50 [1] | IC50 [2] | IC50 [3]
CN[C@H]1CCN(c2ccc(C(=O)Nc3cc(F)c4nc(C)cn4c3)c3nn(C)cc23)[C@H]1C (single isomer, unassigned) [Compound 152] | 1 to 10 µM | 0.1 to 1 µM | > 10 µM
CCNC1CCN(c2ccc(C(=O)Nc3cc(F)c4nc(CC)cn4c3)c3nn(C)cc23)CC1 [Compound 201, 4-[4-(ethylamino)-1-piperidyl]-N-(2-ethyl-8-fluoro-imidazo[1,2-a]pyridin-6-yl)-2-methyl-indazole-7-carboxamide] | 1 to 10 µM | 0.1 to 1 µM | 1 to 10 µM
Cc1nc2c(F)cc(NC(=O)c3ccc(N4CCC(NC5CC5)CC4)c4cn(C)nc34)cn2c1C [Compound 189, 4-[4-(cyclopropylamino)-1-piperidyl]-N-(8-fluoro-2,3-dimethyl-imidazo[1,2-a]pyridin-6-yl)-2-methyl-indazole-7-carboxamide] | > 10 µM | > 10 µM | > 10 µM
Cc1cn2cc(NC(=O)c3ccc(N4C[C@@H](C)N[C@@H](C)C4)c4[nH]c(C)nc34)cc(F)c2n1 [Compound 225, 7-[(3R,5S)-3,5-dimethylpiperazin-1-yl]-N-(8-fluoro-2-methylimidazo[1,2-a]pyridin-6-yl)-2-methyl-1H-1,3-benzodiazole-4-carboxamide] | 1 to 10 µM | 0.1 to 1 µM | 1 to 10 µM
Cc1cn2cc(NC(=O)c3ccc(N4C[C@@H](C)N[C@@H](C)C4)c4nnn(C)c34)cc(F)c2n1 [Compound 261, 7-[(3R,5S)-3,5-dimethylpiperazin-1-yl]-N-(8-fluoro-2-methyl-imidazo[1,2-a]pyridin-6-yl)-3-methyl-benzotriazole-4-carboxamide] | > 10 µM | > 10 µM | > 10 µM
CN[C@H]1CCN(c2c(O)cc(C(=O)Nc3cc(F)c4nc(C)cn4c3)c3nn(C)cc23)C1 [Compound 149, N-(8-fluoro-2-methyl-imidazo[1,2-a]pyridin-6-yl)-5-hydroxy-2-methyl-4-[(3S)-3-(methylamino)pyrrolidin-1-yl]-indazole-7-carboxamide] | 1 to 10 µM | 0.1 to 1 µM | 1 to 10 µM
Cc1cn2cc(NS(=O)(=O)c3ccc(N4C[C@@H](C)N[C@@H](C)C4)c4cn(C)nc34)cc(F)c2n1 [Compound 279] | > 10 µM | > 10 µM | > 10 µM
CCNC1CCN(c2ccc(C(=O)Nc3cc(F)c4nc(C(C)C)cn4c3)c3nn(C)cc23)CC1 [Compound 177, 4-[4-(ethylamino)-1-piperidyl]-N-(8-fluoro-2-isopropyl-imidazo[1,2-a]pyridin-6-yl)-2-methyl-indazole-7-carboxamide] | > 10 µM | > 10 µM | 1 to 10 µM
Cc1cn2cc(NC(=O)c3ccc(N4CCNCC4=O)c4cn(C)nc34)cc(F)c2n1 [Compound 251, N-(8-fluoro-2-methylimidazo[1,2-a]-pyridin-6-yl)-2-methyl-4-(2-oxopiperazin-1-yl)-2H-indazole-7-carboxamide 2,2,2-trifluoroacetate] | > 10 µM | 1 to 10 µM | > 10 µM

More lines, now with the values ahead:

IC50 [1] | IC50 [2] | IC50 [3] | Structure (SMILES)
0.1 to 1 µM | < 0.1 µM | 1 to 10 µM | CO[C@H]1C[C@H](N[C@H]2CCN(c3ccc(C(=O)Nc4cc(F)c5nc(C)cn5c4)c4nn(C)cc34)C2)C1 [Compound 275, N-(8-fluoro-2-methylimidazo[1,2-a]pyridin-6-yl)-4-((S)-3-(((1r,3S)-3-methoxycyclobutyl)amino)pyrrolidin-1-yl)-2-methyl-2H-indazole-7-carboxamide]
< 0.1 µM | < 0.1 µM | 0.1 to 1 µM | CCNC1CCN(c2ccc(C(=O)Nc3cn4cc(C)nc4c(OC)n3)c3nn(C)cc23)CC1 [Compound 206, 4-[4-(ethylamino)-1-piperidyl]-N-(8-methoxy-2-methyl-imidazo[1,2-a]pyrazin-6-yl)-2-methyl-indazole-7-carboxamide]
< 0.1 µM | < 0.1 µM | < 0.1 µM | CNC1(C)CCN(c2cc(F)c(C(=O)Nc3cn4cc(C)nc4c(F)c3OC)c3nn(C)cc23)CC1 [Compound 180, 6-fluoro-N-(8-fluoro-7-methoxy-2-methyl-imidazo[1,2-a]pyridin-6-yl)-2-methyl-4-[4-methyl-4-(methylamino)-1-piperidyl]indazole-7-carboxamide]
0.1 to 1 µM | < 0.1 µM | 0.1 to 1 µM | CCNC1CCN(c2ccc(C(=O)Nc3cn4cc(C)nc(C)c4n3)c3nn(C)cc23)CC1 [Compound 181, N-(6,8-dimethylimidazo [1,2-a]pyrazin-2-yl)-4-[4-(ethylamino)-1-piperidyl]-2-methyl-indazole-7-carboxamide]
0.1 to 1 µM | < 0.1 µM | > 10 µM | Cc1cn2cc(NC(=O)c3c(F)cc(N4CC[C@H](NCC56CC(CO5)C6)C4)c4cn(C)nc34)cc(F)c2n1 [Compound 157, 6-fluoro-N-(8-fluoro-2-methyl-imidazo[1,2-a]pyridin-6-yl)-2-methyl-4-[(3S)-3-(2-oxabicyclo[2.1.1]hexan-1-ylmethylamino)pyrrolidin-1-yl]indazole-7-carboxamide]
0.1 to 1 µM | < 0.1 µM | 1 to 10 µM | Cc1cn2cc(NC(=O)c3ccc(N4CCC(NC5CC5)CC4)c4cc(C)oc34)cc(F)c2n1 [Compound 185, 4-[4-(cyclopropyl-amino)-1-piperidyl]-N-(8-fluoro-2-methyl-imidazo[1,2-a]pyridin-6-yl)-2-methyl-benzofuran-7-carboxamide]
0.1 to 1 µM | < 0.1 µM | > 10 µM | Cc1cn2cc(NC(=O)c3ccc(N4CCC(NC5CC5)CC4)c4cn(C)nc34)nc2c(C)n1 [Compound 297, 4-[4-(cyclopropylamino)-1-piperidyl]-N-(6,8-dimethylimidazo[1,2-a]pyrazin-2-yl)-2-methyl-indazole-7-carboxamide]
< 0.1 µM | < 0.1 µM | > 10 µM | CCN[C@@H]1CCN(c2cc(O)c(C(=O)Nc3cc(F)c4nc(C)cn4c3)c3nn(C)cc23)C1 [Compound 144, 4-[3-(ethylamino)pyrrolidin-1-yl]-N-(8-fluoro-2-methyl-imidazo[1,2-a]pyridin-6-yl)-6-hydroxy-2-methyl-indazole-7-carboxamide]
0.1 to 1 µM | 0.1 to 1 µM | 1 to 10 µM | COCC1(N[C@@H]2CCN(c3ccc(C(=O)Nc4cc(F)c5nc(C)cn5c4)c4nn(C)cc34)C2)CC1 [Compound 119, (R)—N-(8-fluoro-2-methylimidazo[1,2-a]pyridin-6-yl)-4-(3-((1-(methoxymethyl)cyclopropyl)amino)-pyrrolidin-1-yl)-2-methyl-2H-indazole-7-carboxamide]
< 0.1 µM | < 0.1 µM | 0.1 to 1 µM | Cc1cn2cc(NC(=O)c3ccc(N4CCC(NC5CC5C)CC4)c4cn(C)nc34)cc(F)c2n1 (stereo not drawn) [Compound 204, N-(8-fluoro-2-methyl-imidazo[1,2-a]pyridin-6-yl)-2-methyl-4-[4-[(2-methyl-cyclopropyl)amino]-1-piperidyl] indazole-7-carboxamide]
0.1 to 1 µM | < 0.1 µM | 0.1 to 1 µM | Cc1cn2cc(NC(=O)c3ccc(C4CCC(NC5CC5)CC4)c4cn(C)nc34)cc(F)c2n1 (stereo not drawn) [Compound 192, 4-[4-(cyclopropylamino)cyclohexyl]-N-(8-fluoro-2-methyl-imidazo[1,2-a]pyridin-6-yl)-2-methyl-indazole-7-carboxamide]
< 0.1 µM | < 0.1 µM | 0.1 to 1 µM | CN[C@@H]1CCN(c2ccc(C(=O)Nc3cc(F)c4nc(C)cn4c3)c3nn(C)cc23)[C@@H]1C (single isomer, unassigned) [Compound 153]
